These results are taken from ChEMBL document CHEMBL5365411, “Synthesis of 1-(4-(dimethylamino)phenyl)-3,4-diphenyl-1H-pyrrole-2,5-dione analogues and their anti-inflammatory activities in lipopolysaccharide-induced BV2 cells” (Bioorg Med Chem Lett, 2023).

For series [1], the system named is BV-2. Briefly: Inhibition of LPS-induced NO release in mouse BV-2 cells at 20 uM incubated for 24 hrs by Griess assay relative to control. The series is classed as functional.
Series [2] is described as follows: Cytotoxicity against LPS-induced mouse BV-2 cells assessed as cell viability at 20 uM incubated for 24 hrs by MTT assay relative to control. The series is classed as toxicity, cell-based. The note with it: LPS-induced BV-2 cells, read-out: Activity.
Series [3] deals with BV-2. The experiment in a line: Inhibition of LPS-induced NO release in mouse BV-2 cells incubated for 24 hrs by Griess assay. The series is classed as functional, cell-based. As to conditions: for IC50: BV-2, 24 h.
The test system of another series is RAW264.7. Briefly: Inhibition of LPS-induced NO release in mouse RAW264.7 cells at 15 uM incubated for 24 hrs by Griess assay relative to control. The series is classed as functional.
Series [4] relates to BV-2. Briefly: Inhibition of LPS-induced NO release in mouse BV-2 cells up to 100 uM incubated for 24 hrs by Griess assay. The format is functional, cell-based.
The subject of series [5] is BV-2. Briefly: Anti-inflammatory activity against LPS-induced mouse BV-2 cells assessed as reduction in iNOS mRNA expression pre-incubated for 1 hrs followed by LPS addition and measured after 6 hrs by RT-PCR method. The format is functional, cell-based. As to conditions: dose 5-20 µM, time 7.0 hrs.
In series [6] the test system is BV-2. The experiment in a line: Inhibition of LPS-induced NFkappaB activation in mouse BV2 cells assessed as reduction in p65 phosphorylated protein expression level pre-incubated for 30 mins followed by LPS addition by Western blot analysis. The format is cell-based. The note with it: dose 5-20 µM.
Series [7] deals with BV-2. The experiment in a line: Anti-inflammatory activity against LPS-induced mouse BV-2 cells assessed as reduction in iNOS protein expression pre-incubated for 1 hrs followed by LPS addition and measured after 18 hrs by Western blot analysis. The series is classed as functional, cell-based. As to conditions: dose 5-20 µM, time 19.0 hrs.
Series [8] deals with MAP kinase p38 (Mus musculus) (UniProt P47811+O08911+Q9WUI1+Q9Z1B7). Briefly: Inhibition of LPS-induced p38 phosphorylation in mouse BV-2 cells pretreated for 30 mins followed by LPS stimulation by Western blot analysis. The series is classed as cell-based. The note with it: dose 5-20 µM.
Series [9] has as its system BV-2. Briefly: Anti-inflammatory activity against LPS-induced mouse BV-2 cells assessed as reduction in TNF-alpha mRNA expression pre-incubated for 1 hrs followed by LPS addition and measured after 6 hrs by RT-PCR method. The format is functional, cell-based. As to conditions: dose 5-20 µM, time 7.0 hrs.
In series [10] the test system is BV-2. The experiment in a line: Anti-inflammatory activity against LPS-induced mouse BV-2 cells assessed as reduction in COX-2 protein expression pre-incubated for 1 hrs followed by LPS addition and measured after 18 hrs by Western blot analysis. The series is classed as functional, cell-based. As to conditions: dose 5-20 µM, time 19.0 hrs.
Series [11] is described as follows: Inhibition of LPS-induced ERK phosphorylation in mouse BV-2 cells pretreated for 30 mins followed by LPS stimulation by Western blot analysis. The format is cell-based. The note with it: dose 5-20 µM.
Series [12] deals with c-Jun N-terminal kinase (Mus musculus) (UniProt Q91Y86+Q9WTU6+Q61831). The experiment in a line: Inhibition of LPS-induced JNK phosphorylation in mouse BV-2 cells pretreated for 30 mins followed by LPS stimulation by Western blot analysis. The format is cell-based. The note with it: dose 5-20 µM.
Chain of c-Jun N-terminal kinase (Mus musculus) (Q61831 whole entry, looked up): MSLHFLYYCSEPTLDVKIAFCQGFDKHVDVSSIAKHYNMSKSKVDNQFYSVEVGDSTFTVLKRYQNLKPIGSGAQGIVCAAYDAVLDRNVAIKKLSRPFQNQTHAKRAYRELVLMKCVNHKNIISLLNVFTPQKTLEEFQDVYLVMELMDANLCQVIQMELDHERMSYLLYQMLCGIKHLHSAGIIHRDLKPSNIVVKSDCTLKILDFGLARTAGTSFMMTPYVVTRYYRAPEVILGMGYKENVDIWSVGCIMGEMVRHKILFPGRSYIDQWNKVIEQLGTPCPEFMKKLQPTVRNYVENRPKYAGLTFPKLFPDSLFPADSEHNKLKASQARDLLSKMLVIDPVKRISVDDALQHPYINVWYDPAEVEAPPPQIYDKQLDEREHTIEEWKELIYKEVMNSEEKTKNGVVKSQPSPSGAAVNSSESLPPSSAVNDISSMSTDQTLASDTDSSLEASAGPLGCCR
Chain of c-Jun N-terminal kinase (Mus musculus) (Q91Y86 whole entry, looked up): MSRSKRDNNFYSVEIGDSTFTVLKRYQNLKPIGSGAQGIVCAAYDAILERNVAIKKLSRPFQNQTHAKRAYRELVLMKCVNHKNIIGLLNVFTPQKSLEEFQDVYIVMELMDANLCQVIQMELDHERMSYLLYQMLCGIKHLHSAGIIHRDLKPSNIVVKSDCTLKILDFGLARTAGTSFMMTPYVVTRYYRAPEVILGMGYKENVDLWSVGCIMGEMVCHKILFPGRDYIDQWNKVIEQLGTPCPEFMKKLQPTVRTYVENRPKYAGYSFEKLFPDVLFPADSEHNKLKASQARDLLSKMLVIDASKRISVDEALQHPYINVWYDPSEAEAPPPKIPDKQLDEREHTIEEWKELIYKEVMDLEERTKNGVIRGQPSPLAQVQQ
Chain of c-Jun N-terminal kinase (Mus musculus) (Q9WTU6 whole entry, looked up): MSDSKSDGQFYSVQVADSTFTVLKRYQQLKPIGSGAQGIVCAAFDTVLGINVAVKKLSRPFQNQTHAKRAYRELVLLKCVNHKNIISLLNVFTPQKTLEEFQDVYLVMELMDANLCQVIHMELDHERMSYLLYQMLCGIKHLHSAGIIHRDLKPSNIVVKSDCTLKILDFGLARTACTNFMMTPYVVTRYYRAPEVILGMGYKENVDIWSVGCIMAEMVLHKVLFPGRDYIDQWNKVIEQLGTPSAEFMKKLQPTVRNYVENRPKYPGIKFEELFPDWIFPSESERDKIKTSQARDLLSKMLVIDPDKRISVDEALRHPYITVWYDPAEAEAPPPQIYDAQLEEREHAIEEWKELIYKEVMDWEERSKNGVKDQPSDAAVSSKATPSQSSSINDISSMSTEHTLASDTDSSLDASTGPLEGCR
The test system of series [13] is BV-2. Briefly: Anti-inflammatory activity against LPS-induced mouse BV-2 cells assessed as reduction in IL-6 mRNA expression pre-incubated for 1 hrs followed by LPS addition and measured after 6 hrs by RT-PCR method. The series is classed as functional, cell-based. As to conditions: dose 5-20 µM, time 7.0 hrs.
Series [14] deals with BV-2. Briefly: Anti-inflammatory activity against LPS-induced mouse BV-2 cells assessed as reduction in COX-2 mRNA expression pre-incubated for 1 hrs followed by LPS addition and measured after 6 hrs by RT-PCR method. The format is functional, cell-based. As to conditions: dose 5-20 µM, time 7.0 hrs.
The subject of series [15] is BV-2. The experiment in a line: Anti-inflammatory activity against LPS-induced mouse BV-2 cells assessed as reduction in IL-1beta mRNA expression pre-incubated for 1 hrs followed by LPS addition and measured after 6 hrs by RT-PCR method. The format is functional, cell-based. As to conditions: dose 5-20 µM, time 7.0 hrs.
Series [16] has as its system BV-2. The experiment in a line: Cytotoxicity against LPS-induced mouse BV-2 cells assessed as cell viability at 2.5 to 20 uM incubated for 24 hrs by MTT assay. The series is classed as toxicity, cell-based. The note with it: bv-2, 24 h, dose 2.5-20 µM.
Series [17] deals with BV-2. The experiment in a line: Inhibition of LPS-induced NFkappaB activation in mouse BV2 cells assessed as reduction in IkappaBalpha phosphorylated protein expression level pre-incubated for 30 mins followed by LPS addition by Western blot analysis. The series is classed as cell-based. As to conditions: dose 5-20 µM.

Activity calls are given as the source filed them. The calls are words filed in the database; no cut-off is given here.

Regarding `CC(C)(C)OC(=O)Nc1ccc(N2C(=O)C(c3ccccc3)=C(c3ccccc3)C2=O)cc1`, testing at 20 µM in the series on BV-2 [1] gave an inhibition of 39.6%. In addition, in series [2], the viability at 24 h, 20 µM worked out at 97.1%.

In the series on BV-2 [1], `Cc1ccc(N2C(=O)C(c3ccccc3)=C(c3ccccc3)C2=O)cc1` had an inhibition at 20 µM of 25.8%. The viability at 24 h, 20 µM in series [2] is 97.8%.

Take `O=C1C(c2ccccc2)=C(c2ccccc2)C(=O)N1CCc1ccccc1`: testing at 20 µM in the series on BV-2 [1] gave an inhibition of 14.2%. Further, the viability at 24 h, 20 µM in [2] came to 100%.

Molecule `CN(C)c1ccccc1N1C(=O)C(c2ccccc2)=C(c2ccccc2)C1=O` had an IC50 with BV-2 [3] of 13.3 µM. This molecule came in with an inhibition at 20 µM in the series with BV-2 [1] of 81.6%. In addition, in [2], the viability at 24 h, 20 µM came out at 100%.

`O=C1C(c2ccccc2)=C(c2ccccc2)C(=O)N1c1ccc(F)cc1` had an inhibition at 20 µM in the series with BV-2 [1] of 10.3%. Also, the viability at 24 h, 20 µM in [2] worked out at 100%.

With `O=C1C(c2ccccc2)=C(c2ccccc2)C(=O)N1c1ccc(I)cc1`, the inhibition at 20 µM with BV-2 [1] was found to be 22.5%. The viability at 24 h, 20 µM in series [2] turned out to be 100%.

`COc1ccc(N2C(=O)C(c3ccccc3)=C(c3ccccc3)C2=O)cc1` had an inhibition at 20 µM with BV-2 [1] of 32.3%. In series [2], the viability at 24 h, 20 µM was found to be 97.2%.

`O=C1C(c2ccccc2)=C(c2ccccc2)C(=O)N1c1ccc(OC(F)(F)F)cc1` returned an inhibition at 20 µM in the series with BV-2 [1] of 12.9%. Further, in series [2], the viability at 24 h, 20 µM came to 94.5%.

`N#Cc1ccc(N2C(=O)C(c3ccccc3)=C(c3ccccc3)C2=O)cc1` displayed an inhibition at 20 µM in the series with BV-2 [1] of 6.9%. Moreover, the viability at 24 h, 20 µM in series [2] was determined as 80%.

`O=C1C(c2ccccc2)=C(c2ccccc2)C(=O)N1c1ccc(N2CCCCC2)cc1` yielded an inhibition at 20 µM in the series on BV-2 [1] of 5.8%. Also, the viability at 24 h, 20 µM in series [2] amounted to 87.4%.

Turning to `O=C1C(c2ccccc2)=C(c2ccccc2)C(=O)N1c1ccc(Cl)cc1`, the inhibition at 20 µM in the series on BV-2 [1] turned out to be 16%. Also, the viability at 24 h, 20 µM in series [2] came to 93.9%.

With `O=C1CCC(N2C(=O)C(c3ccccc3)=C(c3ccccc3)C2=O)C(=O)N1` (centres undefined), the IC50 in the series on BV-2 [3] was > 50 µM. Further, the inhibition at 20 µM in the series with BV-2 [1] turned out to be 10.2%. Also, in series [2], the viability at 24 h, 20 µM amounted to 98.5%.

For `CN(C)c1cccc(N2C(=O)C(c3ccccc3)=C(c3ccccc3)C2=O)c1`, the IC50 in the series on BV-2 [3] amounted to 12.7 µM. Moreover, testing at 20 µM with BV-2 [1] gave an inhibition of 82.1%. Also, in series [2], the viability at 24 h, 20 µM came out at 90.2%.

Regarding `O=C1CCC(N2C(=O)c3ccccc3C2=O)C(=O)N1` (centres undefined) [THALIDOMIDE], the inhibition at 15 µM with RAW264.7 is 15%. The inhibition result in the series with BV-2 [4] is “inactive”. The molecule further showed an inhibition at 20 µM in the series with BV-2 [1] of 0%. Besides, in series [2], the viability at 24 h, 20 µM came to 93.5%.

Regarding `O=C1C(c2ccccc2)=C(c2ccccc2)C(=O)N1c1ccc([N+](=O)[O-])cc1`, the inhibition at 20 µM in the series with BV-2 [1] was 19.3%. In addition, the viability at 24 h, 20 µM in [2] worked out at 99.4%.

In the case of `O=C1C(c2ccccc2)=C(c2ccccc2)C(=O)N1c1ccc(Br)cc1`, in the series on BV-2 [1], the inhibition at 20 µM stood at 11.5%. For the same molecule, the viability at 24 h, 20 µM in series [2] was 95.7%.

Regarding `Nc1ccc(N2C(=O)C(c3ccccc3)=C(c3ccccc3)C2=O)cc1`, the inhibition at 20 µM in the series with BV-2 [1] worked out at 27.6%. In series [2], the viability at 24 h, 20 µM was determined as 90.2%.

Regarding `CN(C)c1ccc(N2C(=O)C(c3ccccc3)=C(c3ccccc3)C2=O)cc1`, the Activity entry in the series on BV-2 [5], in the series with BV-2 [7], in the series with BV-2 [9], in the series on BV-2 [10], in the series on BV-2 [13] and in the series with BV-2 [14] was “Dose-Dependent Effect” in each case. Moreover, the Activity entry in the series on BV-2 [15] was “Dose-Dependent Effect”; with BV-2 [16], “Non-Toxic”. Moreover, the inhibition entry (with BV-2 [6]; in series [8]; with BV-2 [3]; in the series with BV-2 [17]) was “Dose-Dependent Effect” each time. Besides, the IC50 in the series on BV-2 [3] came out at 7.1 µM. Further, the inhibition entry in series [11] and in series [12] was “inactive” throughout. This molecule also had an inhibition at 20 µM with BV-2 [1] of 83.5%. In addition, in series [2], the viability at 24 h, 20 µM is 98.9%.

As for `O=C1C(c2ccccc2)=C(c2ccccc2)C(=O)N1c1ccc(C(F)(F)F)cc1`, the inhibition at 20 µM with BV-2 [1] came to 12.4%. The viability at 24 h, 20 µM in series [2] came out at 99.4%.

`O=C1C(c2ccccc2)=C(c2ccccc2)C(=O)N1c1ccccc1` returned an inhibition at 20 µM in the series with BV-2 [1] of 22.5%. Further, in series [2], the viability at 24 h, 20 µM came out at 93.3%.

In the series on BV-2 [1], `O=C1C(c2ccccc2)=C(c2ccccc2)C(=O)N1Cc1ccccc1` had an inhibition at 20 µM of 21.9%. Moreover, in series [2], the viability at 24 h, 20 µM came to 100%.

Regarding `CC(C)(C)c1ccc(N2C(=O)C(c3ccccc3)=C(c3ccccc3)C2=O)cc1`, in the series on BV-2 [1], the inhibition at 20 µM is 18.4%. Besides, in [2], the viability at 24 h, 20 µM is 100%.
